Laboratory results: PubChem BioAssay AID602156 (GNF / Scripps Winzeler lab, 2011)
Activity calls are given as the source filed them. How the calls were made is not given here.

Test system: P. yoelii liver stage in HepG2-A16-CD81EGFP, imaging
Assay: exo-erythrocytic parasite development inhibition – imaging, Malaria Box, P. yoelii, HepG2-A16-CD81EGFP, dose response (AID 602156);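 further: infected cells exposed to compound for 48 hours before fixation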

IC50	SMILES
3930 nM	N#CC1=C(N)Oc2c3c(c4ccccc4c2C1c1ccc(F)cc1)C(c1ccc(F)cc1)C(C#N)=C(N)O3 (centres undefined)
> 10000 nM (inactive)	Cc1ccc(NC(=O)C2C3C=CC4(O3)C2C(=O)N(CCCN2CCOCC2)C4C(=O)NC2CCCC(C)C2C)cc1Cl (centres undefined)
> 10000 nM (inactive)	Cc1ccc(-c2cc(C(=O)OCC(=O)c3cccc([N+](=O)[O-])c3)c3cc(C)ccc3n2)cc1
570 nM	COc1ccc2nc(-c3ccccc3)cc(NCCN(C)C)c2c1
75.3 nM	Cc1ccc(-c2cc3nc4c(c(=O)n3[nH]2)CCCC4)cc1
> 10000 nM (inactive)	CCOc1ccc(N(C(=O)C2COc3ccccc3O2)C(C(=O)NC2CCCCC2)c2cn(C)nc2C)cc1 (centres undefined)
1760 nM	Nc1cccc(C(=O)Nc2ccc(Oc3cccc(Oc4ccc(NC(=O)c5cccc(N)c5)cc4)c3)cc2)c1
1010 nM	CCC(=O)NC(c1ccccc1Cl)c1cc(Cl)c2cccnc2c1O (centres undefined)
> 10000 nM (inactive)	CCSc1ccc2ccccc2[n+]1CC
437 nM	COc1cccc(NC(=O)c2ccc(NCCCN3CC(C)CC(C)C3)c([N+](=O)[O-])c2)c1 (centres undefined)
47.4 nM	Cc1ccc2nc3nc4c(C)cccc4c(N)c3cc2c1
15 nM	CN1C(=O)N(C)C(NNC(N)=S)C1NNC(N)=S (centres undefined)
> 10000 nM (inactive)	O=C1Nc2ccccc2C12Nc1ccccc1-c1nc3ccccc3n12 (centres undefined)
1840 nM	COc1ccc(C2CC(=O)C3=C(C2)NC(C)=C(C(=O)OC(C)C)C3c2cccc(C)c2)cc1OC (centres undefined)
193 nM	CCOC(=O)c1cnc2ccc(OC)cc2c1NCc1cccs1
78.9 nM	c1ccc(-c2csc(Nc3nc4cc5c(cc4s3)OCO5)n2)nc1
559 nM	c1ccc(OCCOc2ccc(Nc3c4ccccc4nc4ccccc34)cc2)cc1
190 nM	O=C(Cc1ccccc1)NC(c1ccc(Cl)cc1)c1ccc2cccnc2c1O (centres undefined)
> 10000 nM (inactive)	Cc1c(C#N)c2ccccc2n1CC(=O)Nc1ccc(Br)cc1
17.5 nM	c1ccc(-c2cc(N3CCN(c4ccccn4)CC3)nc(-c3ccccn3)n2)nc1
13.6 nM	CC[n+]1c(/C=C/C=C2\N(C)c3ccccc3C2(C)C)n(-c2ccccc2)c2cc(Cl)ccc21
499 nM	O=c1c2c(nc3cc(-c4ccc(Br)cc4)[nH]n13)CCCC2
20.4 nM	CCOc1ccc(CN(C(=O)COc2ccc(Cl)cc2)C(C)CCCN(CC)CC)cc1 (centres undefined)
690 nM	Fc1ccccc1Nc1nc(NCc2ccccc2)c2ccccc2n1
825 nM	O=C(Cn1ccc(=NCc2ccccc2)cc1)c1ccc(I)cc1
300 nM	CCC(C)Nc1nc(NC(C)CC)nc(N2CCCCCC2)n1 (centres undefined)
6.21 nM	CCN1/C(=C/c2ccc3ccccc3[n+]2CC)Sc2sc3ccccc3c21

IC50	SMILES
319 nM	Nc1ccc(-c2nc3cc(Oc4ccc(Oc5ccc6[nH]c(-c7ccc(N)cc7)nc6c5)cc4)ccc3[nH]2)cc1
> 10000 nM (inactive)	CC(C)(C)c1ccc(Oc2ccc(N3C(=O)C4CC=CCC4C3=O)cc2)cc1 (centres undefined)
240 nM	CCOC(=O)C1=C(C)NC2=C(C(=O)C(C(=O)OCC)C(c3ccc(OC)cc3)C2)C1c1ccc(OC)c(OC)c1 (centres undefined)
3010 nM	CCOC(=O)c1c(NC(C)=O)sc2c1CCN(C(C)C)C2
497 nM	N#Cc1ccc(NC(=O)NC2CC3CCCC(C2)N3CCc2ccccc2)cc1 (centres undefined)
903 nM	CCC[n+]1cccc2ccc3cccnc3c21
402 nM	Oc1c(C(Nc2ccccn2)c2cccc(Cl)c2Cl)ccc2cccnc12 (centres undefined)
2.29 nM	Cc1oc2c(c1C(=O)NC1CCS(=O)(=O)C1)C(=O)c1ccccc1C2=O (centres undefined)
46.8 nM	CCOc1ccc(N2C(N)=NC(N)=NC2(C)C)cc1
80.2 nM	CCC1CN2CCc3cc(OC)c(OC)cc3C2CC1CC1NCCc2cc(OC)c(OC)cc21 (centres undefined)
156 nM	COc1ccc(-c2n(CC(=O)OC3CC(C)CCC3C(C)C)c3ccccc3[n+]2C)cc1 (centres undefined)
139 nM	CCCCCCOc1ccc(NC(=O)c2cccs2)cc1
> 10000 nM (inactive)	CC(=O)Nc1cccc(-c2cncc(-c3ccc(C(=O)O)cc3)n2)c1
> 10000 nM (inactive)	N#Cc1c2c(c(N3CCN(Cc4ccccc4)CC3)n3c1nc1ccccc13)CCC2
1110 nM	Cc1cc(Nc2cccc(F)c2)nc(NCc2ccccc2)n1
225 nM	O=C1c2ccccc2-n2c1nc1ccccc1c2=O
1620 nM	FC(F)(F)c1ccccc1NC(=S)N1CCCN(c2nc3ccc(Cl)cc3s2)CC1
82.4 nM	Cc1nc([P+](c2ccccc2)(c2ccccc2)c2ccccc2)c(N2CCCCC2)o1
269 nM	CCNC(=O)C1CCN(c2cccc3c2C(=O)N(C2CCCCCCC2)C3=O)CC1
13.2 nM	C=CCN1C(=Cc2cc[n+](C)cc2)Sc2ccccc21
> 4780 nM (inactive)	COC(=O)c1ccc(C2C3=C(CC(c4ccco4)CC3=O)Nc3ccccc3N2C(=O)c2ccccc2)cc1 (centres undefined)
> 10000 nM (inactive)	CCOC(=O)c1c(CNC)n(C)c2cc(Br)c(O)cc12
76.5 nM	CCCCCCCn1c2c(c(=N)c3ccccc31)CCC2
> 10000 nM (inactive)	CCCCSCC(O)CN1CCCCC1 (centres undefined)
> 9130 nM (inactive)	COc1cc(OC)c(NC(=O)C2c3ccccc3C(=O)N(C)C2c2ccc(OC)c(OC)c2)cc1Cl (centres undefined)
556 nM	Cc1ccnc(NC(c2ccc3ccccc3c2)c2ccc3cccnc3c2O)c1 (centres undefined)

SMILES	IC50
CCc1cc2c(cc1-c1csc(N=C(N)N)n1)C(C)(C)CCC2(C)C	2900 nM
